# Patent publication US11484557B2, “Human-derived Lactobacillus fermentum MG4231 or Lactobacillus fermentum MG4244 strain having anti-obesity activity, and composition comprising same” (MEDIOGEN CO., LTD., priority 2018, dated 2022)
# System: 3T3-L1 preadipocytes
# Experiment: Inhibition of preadipocyte differentiation, Oil Red O lipid accumulation
# Type: cell-based
# Conditions: positive control, 100 μM baicalin
# Procedure: In order to select a strain having excellent obesity prevention and treatment effects among the strains obtained in the Example 1, an experiment was conducted to identify the ability thereof to inhibit differentiation of preadipocytes into adipocytes. To induce the differentiation of 3T3-L1 preadipocytes, the preadipocytes were dispensed into each 96-well plate at 1.25×10^5 cells/well. After 2 days, the medium was changed so that the cells were completely fused on the 4th day. MDI (0.5 mM 3-isobutyl-1-methylxanthine), 1 μM dexamethasone and 1 μg/mL of insulin solution added to 10% FBS DMEM medium. Subsequently, in the experimental group, the culture supernatant of the strain obtained in Example 1 was added to the medium at a concentration of 1,000 μg/mL. […] Adipocyte differentiation was completed after 6 days, and the amount of lipid accumulated in the cell was measured using Oil Red 0 (Sigma, USA), which reacts specifically with the lipid drop generated in the cell. […] For quantification, distilled water was removed, isopropyl alcohol was added to a completely dry well, and then, absorbance was measured at 520 nm. Then, a degree of inhibition of adipocyte differentiation ability was analyzed by comparing the produced lipid drop content with that of the MDI treatment group based on the measured absorbance.
compound,measurement,value
O=C(O)[C@H]1O[C@@H](Oc2cc3oc(-c4ccccc4)cc(=O)c3c(O)c2O)[C@H](O)[C@@H](O)[C@@H]1O [baicalin],relative lipid content,81.40%
